ChEMBL document CHEMBL1641451, “Investigation of α-phenylnorstatine and α-benzylnorstatine as transition state isostere motifs in the search for new BACE-1 inhibitors” (Bioorg Med Chem, 2011)

Target: Beta-secretase 1 (Homo sapiens, UniProt P56817)
Assay: Inhibition of BACE1

Sequence of Beta-secretase 1 (P56817 whole entry): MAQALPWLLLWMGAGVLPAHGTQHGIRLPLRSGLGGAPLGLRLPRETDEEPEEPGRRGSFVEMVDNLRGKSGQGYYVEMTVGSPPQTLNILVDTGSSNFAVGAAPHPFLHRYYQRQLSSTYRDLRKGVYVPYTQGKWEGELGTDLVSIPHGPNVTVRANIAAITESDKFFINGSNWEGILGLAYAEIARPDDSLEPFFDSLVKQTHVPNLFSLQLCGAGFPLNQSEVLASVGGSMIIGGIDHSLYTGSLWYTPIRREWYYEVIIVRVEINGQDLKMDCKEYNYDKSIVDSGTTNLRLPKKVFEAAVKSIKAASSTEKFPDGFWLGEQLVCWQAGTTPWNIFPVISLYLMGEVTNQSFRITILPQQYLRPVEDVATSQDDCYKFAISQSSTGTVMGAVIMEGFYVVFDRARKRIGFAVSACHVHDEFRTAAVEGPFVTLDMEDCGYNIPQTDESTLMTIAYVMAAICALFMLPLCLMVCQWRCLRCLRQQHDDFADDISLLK

For CC(C)C[C@H](NC(=O)[C@@H](NC(=O)[C@@H](N)CNC(=O)c1nnn[nH]1)C(C)C)C(=O)NC[C@](O)(CCc1ccccc1)C(=O)Nc1cccc(C(=O)O)c1, which IC50 is on record?
Its IC50 is 0.19 µM.

With CC(C)C[C@H](NC(=O)[C@@H](NC(=O)[C@@H](N)CNC(=O)c1nnn[nH]1)C(C)C)C(=O)NCC(O)(Cc1ccccc1)C(=O)Nc1cccc(C(=O)O)c1 (stereo partly specified) as the molecule, how does the IC50 read?
The IC50 was 0.43 µM.

CC(C)C[C@H](NC(=O)[C@@H](NC(=O)[C@@H](N)CNC(=O)c1nn[nH]n1)C(C)C)C(=O)NCC(O)(CCc1ccccc1)C(=O)Nc1cccc(C(=O)O)c1 (stereo partly specified) was tested. Which IC50 did it give?
Its IC50 is 0.4 µM.

Which IC50 does the source give for CC(C)C[C@H](NC(=O)[C@@H](NC(=O)[C@@H](N)CNC(=O)c1nn[nH]n1)C(C)C)C(=O)NC[C@@](O)(CCc1ccccc1)C(=O)Nc1cccc(C(=O)O)c1 here?
Its IC50 is 1.4 µM.

How did the IC50 turn out when CC(C)[C@H](NC(=O)[C@@H](N)CNC(=O)c1nn[nH]n1)C(=O)N[C@@H](CC1CCCCC1)C(=O)NCC(O)(Cc1ccccc1)C(=O)Nc1cccc(C(=O)O)c1 (stereo partly specified) was run?
Its IC50 is 0.68 µM.

With CC(C)C[C@H](NC(=O)[C@H](Cc1ccccc1)NC(=O)[C@@H](N)CNC(=O)c1nnn[nH]1)C(=O)NC[C@](O)(CCc1ccccc1)C(=O)Nc1cccc(C(=O)O)c1 as the molecule, how does the IC50 read?
The IC50 was greater than 10 µM.

Which IC50 does the source give for CC(C)C[C@H](NC(=O)[C@H](Cc1ccccc1)NC(=O)[C@@H](N)CNC(=O)c1nnn[nH]1)C(=O)NC[C@@](O)(CCc1ccccc1)C(=O)Nc1cccc(C(=O)O)c1 here?
The IC50 was greater than 10 µM.

With CCCC[C@H](NC(=O)[C@@H](N)CNC(=O)c1nnn[nH]1)C(=O)N[C@@H](CC(C)C)C(=O)NCC(O)(CCc1ccccc1)C(=O)Nc1cccc(C(=O)O)c1 (stereo partly specified) as the molecule, how does the IC50 read?
The IC50 was greater than 10 µM.

CC(C)C[C@H](NC(=O)[C@H](CC(C)C)NC(=O)[C@@H](N)CNC(=O)c1nnn[nH]1)C(=O)NCC(O)(CCc1ccccc1)C(=O)Nc1cccc(C(=O)O)c1 (stereo partly specified) was tested. Which IC50 did it give?
The IC50 was greater than 10 µM.

With CC(C)C[C@H](NC(=O)C[C@@H](NC(=O)[C@@H](N)CNC(=O)c1nnn[nH]1)C(C)C)C(=O)NCC(O)(CCc1ccccc1)C(=O)Nc1cccc(C(=O)O)c1 (stereo partly specified) as the molecule, how does the IC50 read?
The IC50 was greater than 10 µM.

With CC(C)C[C@H](NC(=O)[C@@H](NC(=O)[C@H](N)CNC(=O)c1nnn[nH]1)C(C)C)C(=O)NCC(O)(CCc1ccccc1)C(=O)Nc1cccc(C(=O)O)c1 (stereo partly specified) as the molecule, how does the IC50 read?
Its IC50 is greater than 10 µM.

How did the IC50 turn out when CC(C)C[C@H](NC(=O)[C@@H](NC(=O)[C@@H](N)CN)C(C)C)C(=O)NCC(O)(CCc1ccccc1)C(=O)Nc1cccc(C(=O)O)c1 (stereo partly specified) was run?
Its IC50 is greater than 10 µM.

CC(C)C[C@H](NC(=O)[C@@H](NC(=O)[C@@H](CO)NC(=O)c1nn[nH]n1)C(C)C)C(=O)NCC(O)(CCc1ccccc1)C(=O)Nc1cccc(C(=O)O)c1 (stereo partly specified) was tested. Which IC50 did it give?
The IC50 was greater than 10 µM.

CC(C)C[C@H](NC(=O)[C@@H](NC(=O)[C@H](CO)NC(=O)c1nnn[nH]1)C(C)C)C(=O)NCC(O)(CCc1ccccc1)C(=O)Nc1cccc(C(=O)O)c1 (stereo partly specified) was tested. Which IC50 did it give?
Its IC50 is greater than 10 µM.

How did the IC50 turn out when CC(C)C[C@H](NC(=O)[C@@H](NC(=O)[C@@H](N)CNC(=O)c1nn[nH]n1)C(C)C)C(=O)NCC(O)C(=O)Nc1cccc(C(=O)O)c1 (stereo partly specified) was run?
Its IC50 is 0.44 µM.

CC(C)[C@H](NC(=O)[C@@H](NC(=O)[C@@H](N)CNC(=O)c1nnn[nH]1)C(C)C)C(=O)NCC(O)C(=O)Nc1cccc(C(=O)O)c1 (stereo partly specified) was tested. Which IC50 did it give?
The IC50 was 3 µM.

Which IC50 does the source give for CC(C)C[C@H](NC(=O)[C@@H](NC(=O)[C@@H](N)CN)C(C)C)C(=O)NCC(O)C(=O)Nc1cccc(C(=O)O)c1 (stereo partly specified) here?
Its IC50 is greater than 10 µM.

Which IC50 does the source give for CC(C)C[C@H](NC(=O)[C@@H](NC(=O)[C@H](N)CO)C(C)C)C(=O)NCC(O)C(=O)Nc1cccc(C(=O)O)c1 (stereo partly specified) here?
The IC50 was greater than 10 µM.

CC(C)C[C@H](NC(=O)[C@@H](NC(=O)[C@H](N)CNC(=O)c1nn[nH]n1)C(C)C)C(=O)NCC(O)C(=O)Nc1cccc(C(=O)O)c1 (stereo partly specified) was tested. Which IC50 did it give?
The IC50 was greater than 10 µM.

For CC(C)[C@H](NC(=O)[C@@H](NC(=O)[C@@H](CO)NC(=O)c1nn[nH]n1)C(C)C)C(=O)NCC(O)C(=O)Nc1cccc(C(=O)O)c1 (stereo partly specified), which IC50 is on record?
Its IC50 is greater than 10 µM.

With CC(C)C[C@H](NC(=O)[C@@H](NC(=O)[C@@H](N)CNC(=O)c1nnn[nH]1)C(C)C)C(=O)NCCC(=O)Nc1cccc(C(=O)O)c1 as the molecule, how does the IC50 read?
Its IC50 is 0.87 µM.

For CC(C)C[C@H](NC(=O)[C@@H](NC(=O)[C@H](N)CNC(=O)c1nnn[nH]1)C(C)C)C(=O)NCCC(=O)Nc1cccc(C(=O)O)c1, which IC50 is on record?
Its IC50 is greater than 10 µM.

CC(C)C[C@H](NC(=O)[C@@H](NC(=O)[C@@H](CO)NC(=O)c1nnn[nH]1)C(C)C)C(=O)NCCC(=O)Nc1cccc(C(=O)O)c1 was tested. Which IC50 did it give?
The IC50 was greater than 10 µM.

For CC(C)C[C@H](NC(=O)[C@@H](NC(=O)[C@@H](N)CNC(=O)c1nn[nH]n1)C(C)C)C(=O)NCC(O)C(=O)O (stereo partly specified), which IC50 is on record?
The IC50 was 6.1 µM.

How did the IC50 turn out when CC(C)C[C@H](NC(=O)[C@@H](NC(=O)[C@H](CO)NC(=O)c1nnn[nH]1)C(C)C)C(=O)NCCC(=O)Nc1cccc(C(=O)O)c1 was run?
The IC50 was greater than 10 µM.

CC(C)C[C@H](NC(=O)[C@@H](NC(=O)[C@@H](N)CNC(=O)c1nnn[nH]1)C(C)C)C(=O)O was tested. Which IC50 did it give?
The IC50 was 4.4 µM.
